# Results published in patent US12209080B2, “Polymorphic forms of kinase inhibitor compound, pharmaceutical composition containing same, preparation method therefor and use thereof” (EQUINOX SCIENCES, LLC, priority 2016, dated 2025).
# What was measured:
# Format in all cases: physicochemical
# [1] = Stability of the crystalline forms (HPLC, XRD, DSC); settings: for HPLC Maximum single impurity %: retention time (min) in brackets
# Procedure: Experimental conditions: the samples were sealed and placed at 80° C. for 24 hours, and then placed in an open dish at 25° C./60% RH (relative humidity) and 40° C./75% RH for 7 days. Detection method: HPLC (only for the starting samples and samples placed at 80° C. for 24 hours), XRD, DSC.
# In addition, the long-term stabilities of the crystalline form 1 for 12 months, 24 months, 36 months, and 48 months at 25° C./60% RH were also investigated.
# [2] = Solubility determination in water by HPLC; settings: suspension in water, 25° C.
# Procedure: HPLC detection was performed using the crystalline form 1 as a standard, with its concentration of 204.2 μg*mL^−1 and its content set as 100%, and the detection was performed 7 times. The average peak area was 159.691 mAU*min (retention time was 7.4 min).
# [3] = Moisture-induced crystallization experiment (XRD); settings: room temperature, 58-97% RH, up to 10 days
# Procedure: About 10 mg of the crystalline form 1 was taken and placed in the corresponding environment, and the solid was detection by XRD at different time.
structure (smiles),measurement,setting,value
"Cc1[nH]c(/C=C2\C(=O)Nc3ccc(F)cc32)c(C)c1C(=O)N[C@H]1CCN(C(=O)N(C)C)C1 [crystalline form 1, 5-[5-fluoro-2-oxo-1,2-dihydro-indole-(3Z)-ylidenemethyl]-2,4-dimethyl-1H-pyrrole-3-carboxylic acid ((S)-1-dimethylcarbamoyl-pyrrolidin-3-yl)-amide]",HPLC Purity %,[1]; 0 day (starting sample),99.67%
same,HPLC Maximum single impurity %,[1]; 0 day (starting sample),0.22 (4.73) %
same,long-term stability of the crystalline form,"[1]; 12, 24, 36 and 48 months at 25° C./60% RH",substantially unchanged
same,crystalline form and melting point by XRD and DSC,"[1]; sealed 80° C. 24 hours, open dish 25° C./60% RH and 40° C./75% RH for 7 days",substantially unchanged
same,HPLC Purity %,"[1]; sealed, 80° C./24 h",98.87%
same,HPLC Maximum single impurity %,"[1]; sealed, 80° C./24 h",1.03 (4.73) %
same,concentration (solubility in water),[2]; 0.5 hours,1.12 µg/mL
same,concentration (solubility in water),[2]; 4 hours,1.32 µg/mL
same,stability under humidity conditions (overall),[3],stable
